According to ChEMBL document CHEMBL1201862, “PubChem BioAssay data set” (2004):
Values joined by “and” are separate entries in the source; they are usually repeats but may differ in a detail not shown here. Equal values may be shown once.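 Each compound was tested at five concentrations against cells in 96-well plates for 48 hours. Here, GI50 denotes the concentration required for 50% inhibition of growth.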 Active and inactive are the calls of the source. Rule as the data show it: active = GI50 up to about 1.1 µM and inactive = higher.

How the values were obtained:
Assay in all cases: NCI anticancer screen, dose series, 48 h
[1] = test system: 786-0
[2] = test system: A549
[3] = test system: ACHN
[4] = test system: CAKI-1
[5] = test system: COLO 205
[6] = test system: DU-145
[7] = test system: HOP-62
[8] = test system: Hs-578T
[9] = test system: K562
[10] = test system: M14
[11] = test system: MCF7
[12] = test system: MDA-MB-435
[13] = test system: Malme-3M
[14] = test system: NCI-H226
[15] = test system: NCI-H522
[16] = test system: OVCAR-3
[17] = test system: OVCAR-4
[18] = test system: OVCAR-8
[19] = test system: RPMI-8226
[20] = test system: RXF 393
[21] = test system: SF-295
[22] = test system: SF-539
[23] = test system: SK-MEL-5
[24] = test system: SNB-19
[25] = test system: SR
[26] = test system: TK-10
[27] = test system: U-251
[28] = test system: UACC-257
[29] = test system: A498
[30] = test system: CCRF-CEM
[31] = test system: EKVX
[32] = test system: HCC 2998
[33] = test system: HCT-116
[34] = test system: HCT-15
[35] = test system: HL-60
[36] = test system: HT-29
[37] = test system: IGROV-1
[38] = test system: KM12
[39] = test system: LOX IMVI
[40] = test system: MDA-MB-231
[41] = test system: MDA-N
[42] = test system: MOLT-4
[43] = test system: NCI-H23
[44] = test system: NCI-H460
[45] = test system: NCI/ADR-RES
[46] = test system: OVCAR-5
[47] = test system: PC-3
[48] = test system: SF-268
[49] = test system: SK-MEL-28
[50] = test system: SK-MEL-2
[51] = test system: SK-OV-3
[52] = test system: SN12C
[53] = test system: SNB-75
[54] = test system: T47D
[55] = test system: UACC-62
[56] = test system: UO-31
[57] = test system: HOP-92
[58] = test system: SW-620

In the case of `O=[N+]([O-])c1ccc(OC2CC3C4C=CC3C2C4)c([N+](=O)[O-])c1` (configuration not stated), the GI50 [1] was 24.6 µM (inactive) and > 31.6 µM (inactive), the GI50 [2] was 31 µM (inactive) and 33.3 µM (inactive) and the GI50 [3] was 37.4 µM (inactive) and > 31.6 µM (inactive). For the same molecule, the GI50 [4] was 29.2 µM (inactive) and > 31.6 µM (inactive), the GI50 [5] was 54 µM (inactive) and > 31.6 µM (inactive) and the GI50 [6] was 45.8 µM (inactive) and > 31.6 µM (inactive). The GI50 [7] was 45 µM (inactive) and > 31.6 µM (inactive), the GI50 [8] was 33.7 µM (inactive) and > 31.6 µM (inactive) and the GI50 [9] was 30.8 µM (inactive) and > 31.6 µM (inactive). For the same molecule, the GI50 [10] was 21.6 µM (inactive) and > 31.6 µM (inactive), the GI50 [11] was > 100 µM (inactive) and 61.4 µM (inactive) and the GI50 [12] was > 31.6 µM (inactive) and 24.3 µM (inactive). For the same molecule, the GI50 [13] was 31.4 µM (inactive) and 34.8 µM (inactive), the GI50 [14] was > 31.6 µM (inactive) and 42 µM (inactive) and the GI50 [15] was 43.6 µM (inactive) and > 31.6 µM (inactive). For the same molecule, the GI50 [16] was 43.5 µM (inactive) and 29.4 µM (inactive), the GI50 [17] was 22.8 µM (inactive) and > 31.6 µM (inactive) and the GI50 [18] was 39.2 µM (inactive) and > 31.6 µM (inactive). The GI50 [19] was 0.0465 µM (active), the GI50 [20] was 42.6 µM (inactive) and > 31.6 µM (inactive) and the GI50 [21] was 16.5 µM (inactive) and > 31.6 µM (inactive). For the same molecule, the GI50 [22] was > 31.6 µM (inactive) and 26.3 µM (inactive), the GI50 [23] was 39.8 µM (inactive) and 21 µM (inactive) and the GI50 [24] was 32.3 µM (inactive) and > 31.6 µM (inactive). The GI50 [25] was > 10 µM (inactive), the GI50 [26] was > 31.6 µM (inactive) and 33.7 µM (inactive) and the GI50 [27] was 37.6 µM (inactive) and > 31.6 µM (inactive). The GI50 [28] was 20.9 µM (inactive) and > 31.6 µM (inactive).

For `C=C[C@@]1(O)CCCC[C@@H]1CC(Sc1ccccc1)Sc1ccccc1`, the GI50 [1] was 22.2 µM (inactive), the GI50 [29] was 24.4 µM (inactive) and the GI50 [2] was 15.9 µM (inactive). The GI50 [3] was 67.5 µM (inactive), the GI50 [4] was 14.8 µM (inactive) and the GI50 [30] was 30.6 µM (inactive). For the same molecule, the GI50 [5] was 18.3 µM (inactive), the GI50 [6] was 17.7 µM (inactive) and the GI50 [31] was 15.3 µM (inactive). For the same molecule, the GI50 [32] was 13 µM (inactive), the GI50 [33] was 15.6 µM (inactive) and the GI50 [34] was 17.1 µM. For the same molecule, the GI50 [35] was 49.8 µM (inactive), the GI50 [7] was 16 µM (inactive) and the GI50 [36] was 19.4 µM (inactive). For the same molecule, the GI50 [8] was 15.5 µM (inactive), the GI50 [37] was 14.9 µM (inactive) and the GI50 [9] was 33 µM (inactive). For the same molecule, the GI50 [38] was 16.9 µM (inactive), the GI50 [39] was 19.6 µM (inactive) and the GI50 [10] was 19.4 µM (inactive). For the same molecule, the GI50 [11] was 16.7 µM (inactive), the GI50 [40] was 17.1 µM (inactive) and the GI50 [12] was 16.3 µM (inactive). The GI50 [41] was 20.1 µM (inactive), the GI50 [42] was 31.1 µM (inactive) and the GI50 [13] was 14.6 µM (inactive). For the same molecule, the GI50 [14] was 21.8 µM (inactive), the GI50 [43] was 17.2 µM (inactive) and the GI50 [44] was 13.4 µM (inactive). The GI50 [15] was 13.4 µM (inactive), the GI50 [45] was 19.8 µM (inactive) and the GI50 [17] was 16.9 µM (inactive). For the same molecule, the GI50 [46] was 18.8 µM (inactive), the GI50 [18] was 17.9 µM (inactive) and the GI50 [47] was 14.3 µM (inactive). The GI50 [19] was 27.5 µM (inactive), the GI50 [20] was 14.9 µM (inactive) and the GI50 [48] was 15.5 µM (inactive). For the same molecule, the GI50 [21] was 14.7 µM (inactive), the GI50 [49] was 25.4 µM (inactive) and the GI50 [50] was 16 µM (inactive). For the same molecule, the GI50 [23] was 17.1 µM (inactive), the GI50 [51] was 16.4 µM (inactive) and the GI50 [52] was 18.2 µM (inactive). The GI50 [24] was 18 µM (inactive), the GI50 [53] was 13.7 µM (inactive) and the GI50 [25] was 37.1 µM (inactive). For the same molecule, the GI50 [54] was 11.1 µM (inactive), the GI50 [26] was 15.7 µM (inactive) and the GI50 [27] was 16.7 µM (inactive). For the same molecule, the GI50 [28] was 17.4 µM (inactive), the GI50 [55] was 8.59 µM (inactive) and the GI50 [56] was 17.2 µM (inactive).

`Cn1c(SCc2ccc(F)cc2)nnc1C12CC3CC(CC(C3)C1)C2` was tested, and the GI50 [1] was 35.8 µM (inactive), the GI50 [29] was 11 µM (inactive) and the GI50 [2] was 36.6 µM (inactive). The GI50 [3] was 33.5 µM (inactive), the GI50 [4] was > 100 µM (inactive) and the GI50 [30] was 17.1 µM (inactive). The GI50 [5] was 17 µM (inactive), the GI50 [6] was 52 µM (inactive) and the GI50 [31] was 37.1 µM (inactive). The GI50 [32] was 39.2 µM (inactive), the GI50 [33] was 23.3 µM (inactive) and the GI50 [34] was 26.4 µM. For the same molecule, the GI50 [35] was 11.1 µM (inactive), the GI50 [7] was 47.3 µM (inactive) and the GI50 [57] was 25 µM (inactive). The GI50 [36] was 16.1 µM (inactive), the GI50 [8] was 34.8 µM (inactive) and the GI50 [37] was 12.7 µM (inactive). The GI50 [9] was 24.2 µM (inactive), the GI50 [39] was 22.2 µM (inactive) and the GI50 [10] was 24.2 µM (inactive). For the same molecule, the GI50 [40] was 20.1 µM (inactive), the GI50 [12] was 22.5 µM (inactive) and the GI50 [41] was 38.5 µM (inactive). The GI50 [42] was 13.6 µM (inactive), the GI50 [13] was 19.5 µM (inactive) and the GI50 [14] was 33.5 µM (inactive). The GI50 [43] was 50.6 µM (inactive), the GI50 [44] was 40 µM (inactive) and the GI50 [15] was 36.9 µM (inactive). The GI50 [45] was 28.9 µM (inactive), the GI50 [16] was 29.4 µM (inactive) and the GI50 [17] was 35.2 µM (inactive). For the same molecule, the GI50 [46] was 63.2 µM (inactive), the GI50 [18] was 31.8 µM (inactive) and the GI50 [47] was 28.8 µM (inactive). The GI50 [19] was 20.1 µM (inactive), the GI50 [20] was 27.8 µM (inactive) and the GI50 [48] was 40.4 µM (inactive). For the same molecule, the GI50 [21] was 50.8 µM (inactive), the GI50 [22] was 24.5 µM (inactive) and the GI50 [49] was 24.3 µM (inactive). The GI50 [50] was 40.6 µM (inactive), the GI50 [23] was 11.9 µM (inactive) and the GI50 [51] was 52.1 µM (inactive). The GI50 [52] was 43.2 µM (inactive), the GI50 [24] was 53.5 µM (inactive) and the GI50 [53] was 37.8 µM (inactive). For the same molecule, the GI50 [25] was 24.2 µM (inactive), the GI50 [58] was 58.7 µM (inactive) and the GI50 [54] was 56.9 µM (inactive). The GI50 [27] was 35.2 µM (inactive), the GI50 [28] was 33.2 µM (inactive) and the GI50 [55] was 27.1 µM (inactive). For the same molecule, the GI50 [56] was 34.4 µM (inactive).
